Reference: the supplement of paper PMC10307832

Experiments:
Assay in all cases: relative viability (nuclei count vs DMSO), 5 days (fraction); higher = more cells survive
Everolimus + Trametinib = compound: CO[C@H]1C[C@@H]2CC[C@@H](C)[C@@](O)(O2)C(=O)C(=O)N2CCCC[C@H]2C(=O)O[C@H]([C@H](C)C[C@@H]2CC[C@@H](OCCO)[C@H](OC)C2)CC(=O)[C@H](C)/C=C(\C)[C@@H](O)[C@@H](OC)C(=O)[C@H](C)C[C@H](C)/C=C/C=C/C=C/1C [Everolimus] + CC(=O)Nc1cccc(-n2c(=O)n(C3CC3)c(=O)c3c(Nc4ccc(I)cc4F)n(C)c(=O)c(C)c32)c1 [Trametinib] (partner 0.02 µM)
Procedure, shortened: (§1)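 Relative viability is defined as nuclei in treated wells over nuclei in vehicle wells. Duplicate plates were run and medians reported. Lung cancer cell lines in 1536-well plates were dosed by pin tool one day after seeding, with one drug or with a fixed anchor-drug dose plus five library-drug doses (not always all listed) in √10 steps, and nuclei were counted after 5 days.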

Everolimus + Bortezomib = compound: CO[C@H]1C[C@@H]2CC[C@@H](C)[C@@](O)(O2)C(=O)C(=O)N2CCCC[C@H]2C(=O)O[C@H]([C@H](C)C[C@@H]2CC[C@@H](OCCO)[C@H](OC)C2)CC(=O)[C@H](C)/C=C(\C)[C@@H](O)[C@@H](OC)C(=O)[C@H](C)C[C@H](C)/C=C/C=C/C=C/1C [Everolimus] + CC(C)C[C@H](NC(=O)[C@H](Cc1ccccc1)NC(=O)c1cnccn1)B(O)O [Bortezomib] (partner 0.002 µM)
Procedure, shortened: as §1

Everolimus + Pictilisib = compound: CO[C@H]1C[C@@H]2CC[C@@H](C)[C@@](O)(O2)C(=O)C(=O)N2CCCC[C@H]2C(=O)O[C@H]([C@H](C)C[C@@H]2CC[C@@H](OCCO)[C@H](OC)C2)CC(=O)[C@H](C)/C=C(\C)[C@@H](O)[C@@H](OC)C(=O)[C@H](C)C[C@H](C)/C=C/C=C/C=C/1C [Everolimus] + CS(=O)(=O)N1CCN(Cc2cc3nc(-c4cccc5[nH]ncc45)nc(N4CCOCC4)c3s2)CC1 [Pictilisib] (partner 1 µM)
Procedure, shortened: as §1

Everolimus + Olaparib = compound: CO[C@H]1C[C@@H]2CC[C@@H](C)[C@@](O)(O2)C(=O)C(=O)N2CCCC[C@H]2C(=O)O[C@H]([C@H](C)C[C@@H]2CC[C@@H](OCCO)[C@H](OC)C2)CC(=O)[C@H](C)/C=C(\C)[C@@H](O)[C@@H](OC)C(=O)[C@H](C)C[C@H](C)/C=C/C=C/C=C/1C [Everolimus] + O=C(c1cc(Cc2n[nH]c(=O)c3ccccc23)ccc1F)N1CCN(C(=O)C2CC2)CC1 [Olaparib] (partner 8 µM)
Procedure, shortened: as §1

Cell Line: UMC-11
- relative viability (Everolimus + Trametinib; first compound 0.01 µM): 0.267
- relative viability (Everolimus + Trametinib; first compound 0.03162 µM): 0.299
- relative viability (Everolimus + Trametinib; first compound 0.1 µM): 0.252
- relative viability (Everolimus + Trametinib; first compound 0.3162 µM): 0.348
- relative viability (Everolimus + Trametinib; first compound 1 µM): 0.295
- relative viability (Everolimus + Bortezomib; first compound 0.01 µM): 0.325
- relative viability (Everolimus + Bortezomib; first compound 0.03162 µM): 0.34
- relative viability (Everolimus + Bortezomib; first compound 0.1 µM): 0.301
- relative viability (Everolimus + Bortezomib; first compound 0.3162 µM): 0.356
- relative viability (Everolimus + Bortezomib; first compound 1 µM): 0.362
- relative viability (Everolimus + Pictilisib; first compound 0.01 µM): 0.292
- relative viability (Everolimus + Pictilisib; first compound 0.03162 µM): 0.273
- relative viability (Everolimus + Pictilisib; first compound 0.1 µM): 0.28
- relative viability (Everolimus + Pictilisib; first compound 0.3162 µM): 0.299
- relative viability (Everolimus + Pictilisib; first compound 1 µM): 0.324
- relative viability (Everolimus + Olaparib; first compound 0.01 µM): 0.362
- relative viability (Everolimus + Olaparib; first compound 0.03162 µM): 0.273
- relative viability (Everolimus + Olaparib; first compound 0.1 µM): 0.223
- relative viability (Everolimus + Olaparib; first compound 0.3162 µM): 0.239
- relative viability (Everolimus + Olaparib; first compound 1 µM): 0.29
